Source: patent US20240109873A1, “ANTAGONISTS OF THE MUSCARINIC ACETYLCHOLINE RECEPTOR M4” (Vanderbilt University, priority 2020, published 2024)

Biological target: T1, human mAChR M1 (Homo sapiens, UniProt P11229)
T1 construct: host or cells: CHO-K1 (ATCC), stably transfected
T1 sequence (P11229 1-460): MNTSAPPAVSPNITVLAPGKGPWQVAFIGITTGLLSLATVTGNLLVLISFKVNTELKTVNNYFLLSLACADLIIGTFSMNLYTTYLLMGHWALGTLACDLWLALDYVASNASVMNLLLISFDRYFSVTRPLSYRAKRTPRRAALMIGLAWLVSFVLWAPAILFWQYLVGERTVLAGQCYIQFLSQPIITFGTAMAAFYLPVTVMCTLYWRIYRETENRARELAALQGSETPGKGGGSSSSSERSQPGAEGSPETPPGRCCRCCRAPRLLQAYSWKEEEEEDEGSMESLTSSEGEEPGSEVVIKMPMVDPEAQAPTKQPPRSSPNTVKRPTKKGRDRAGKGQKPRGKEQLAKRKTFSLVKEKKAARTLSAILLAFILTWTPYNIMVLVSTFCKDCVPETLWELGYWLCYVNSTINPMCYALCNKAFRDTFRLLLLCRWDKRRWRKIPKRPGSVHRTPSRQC
Assay: mAChR M1 cell-based functional assay (calcium flux, antagonism of EC80 acetylcholine response, hM1 CHO-K1 cells)
Conditions: for Human M1 Emin: % ACh maximum at 30 μM; for IC50: decrease of the response elicited by an EC80 concentration of acetylcholine, CHO-K1 cells
Method: hM1 cDNA was purchased from Missouri S&T cDNA Resource and used to stably transfect CHO-K1 cells purchased from the American Type Culture Collection using Lipofectamine2000. hM1 cells were grown in Ham's F-12 medium containing 10% heat-inactivated fetal bovine serum (FBS), 20 mM HEPES, and 50 μg/mL G418 sulfate.
For high throughput measurement of agonist-evoked increases in intracellular calcium, CHO-K1 cells stably expressing muscarinic receptors were plated in growth medium lacking G418 and hygromycin at 15,000 cells/20 μL/well in Greiner 384-well black-walled, tissue culture (TC)-treated, clear-bottom plates (VWR). Cells were incubated overnight at 37° C. and 5% CO2. The next day, cells were washed using an ELX 405 (BioTek) with four washes (80 μL) of assay buffer then aspirated to 20 μL. Next, 20 μL of 16 μM Fluo-4/acetoxymethyl ester (Invitrogen, Carlsbad, CA) prepared as a 2.3 mM stock in DMSO and mixed in a 1:1 ratio with 10% (w/v) Pluronic F-127 and diluted in assay buffer was added to the wells and the cell plates were incubated for 50 min at 37° C. and 5% CO2. Dye was removed by washing with the ELX 405 (four 80 μL washes of assay buffer) then aspirated to 20 μL. Compound master plates were formatted in an 11-point CRC format (1:3 dilutions) in 100% DMSO with a starting concentration of 10 mM using the BRAVO liquid handler (Agilent). Test compound CRCs were then transferred to daughter plates (240 nL) using the Echo acoustic plate reformatter (Labcyte, Sunnyvale, CA) and then diluted into assay buffer (40 μL) to a 2× stock using a Thermo Fisher Combi (Thermo Fisher Scientific, Waltham, MA).
Calcium flux was measured using the Functional Drug Screening System (FDSS) 6000 (Hamamatsu Corporation, Tokyo, Japan) as an increase in the fluorescent static ratio. Compounds were applied to cells (20 μL, 2×) using the automated system of the FDSS 6000 at 4 s into the 300 s protocol and the data were collected at 1 Hz. At 144 s into the 300 s protocol, 10 μL of an EC20 concentration of the muscarinic receptor agonist acetylcholine was added (5×), followed by the addition of 12 μL an EC80 concentration of acetylcholine at the 230 s time point (5×). Agonist activity was analyzed as a concentration-dependent increase in calcium mobilization upon compound addition. Emax values for agonist activity are expressed relative to the maximum for acetylcholine. Positive allosteric modulator activity was analyzed as a concentration-dependent increase in the EC20 acetylcholine response. Antagonist activity was analyzed as a concentration-dependent decrease in the EC80 acetylcholine response; for the purposes of the tables herein, an IC50 (inhibitory concentration 50) was calculated as a concentration-dependent decrease of the response elicited by an EC80 concentration of acetylcholine. […]
The above-described assay was also operated in a second mode where an appropriate fixed concentration of the present compounds were added to the cells after establishment of a fluorescence baseline for about 3 seconds, and the response in cells was measured. 140 s later the appropriate concentration of agonist was added and readings taken for an additional 106 s. Data were reduced as described above and the EC50 values for the agonist in the presence of test compound were determined by nonlinear curve fitting. […]

| Compound | Human M1 Emin | human mAChR M1 antagonist activity, comparison in words (compound 61 versus compound 62, from Table 3) | IC50 |
| --- | --- | --- | --- |
| [2H]C([2H])([C@H]1CCOC(C)(C)C1)N1C[C@H]2C[C@H](Nc3ccc(-c4cccnc4C(F)(F)F)nn3)C[C@H]2C1 (single isomer, unassigned) [Compound 61] | 20% | less human mAChR M1 antagonist activity than compound 62 | > 10000 nM |
| [2H]C([2H])([C@@H]1CCOC(C)(C)C1)N1C[C@H]2C[C@H](Nc3ccc(-c4cccnc4C(F)(F)F)nn3)C[C@H]2C1 [Compound 62, (3aR,5s,6aS)-2-(((R)-2,2-dimethyltetrahydro-2H-pyran-4-yl)methyl-d2)-N-(6-(2-(trifluoromethyl)pyridin-3-yl)pyridazin-3-yl)octahydrocyclopenta[c]pyrrol-5-amine] | 6% |  | 610 nM |
